Reference: patent US20240024295A1, “COMPOSITIONS AND METHODS FOR INHIBITING HAIR GROWTH” (priority 2020, published 2024)

Test system: C3H mice
Experiment: Telogen Conversion Assay
Type: in vivo
Conditions: for Average Grades, 23 Days: average of 7 mice after 23 days; for hair regrowth as compared to the control group (placebo): applied daily to mice, at the appropriate dose-level, week 3 and week 4, FIGURE; for effect on hair growth (average grade): average grade of 7 mice after 23 days, example written in present tense
Experimental: FP receptor antagonists are tested for their potential to grow hair using the Telogen Conversion Assay. The Telogen Conversion Assay measures the potential of a FP receptor antagonist to inhibit in mice the conversion of hair in the resting stage of the hair growth cycle (“telogen”), to the growth stage of the hair growth cycle (“anagen”), and to assess the rate of anagen growth.
Without intending to be limited by theory, there are three principal phases of the hair growth cycle: anagen, catagen, and telogen. It is believed that there is a long telogen period in C3H mice (Harian Sprague Dawley, Inc., Indianapolis, IN) from approximately 40 days of age until about 75 days of age, when hair growth is synchronized. It is believed that after 75 days of age, hair growth is no longer synchronized. Wherein about 40 day-old mice with dark fur (brown or black) are used in hair growth experiments, melanogenesis occurs along with hair (fur) growth wherein the topical application of hair growth inducers is evaluated. The Telogen Conversion Assay herein is used to screen FP receptor antagonists for potential hair growth by measuring melanogenesis and/or inhibition of expected hair growth.
Three groups of 44 day-old C3H mice are used: a vehicle control group, a positive control group, and a test FP receptor antagonist group, wherein the test FP receptor antagonist group is administered a FP receptor antagonist. The length of the assay is typically 24 days with 15 treatment days (wherein the treatment days occur Mondays through Fridays). Day 1 is the first day of treatment. Typical dosage concentrations are set forth in Table 1, however the skilled artisan will readily understand that such concentrations may be modified.
The mice are treated topically Monday through Friday on their lower back (base of tail to the lower rib). A pipette and tip are used to deliver 400 μL to each mouse's back. The 400 μL application is applied slowly while moving hair on the mouse to allow the application to reach the skin.
While each treatment is being applied to the mouse topically, a visual grade of from 0 to 4 will be given to the skin color in the application area of each animal. As a mouse converts from telogen to anagen, its skin color will become less pink and more bluish-black.

[1] = visual skin/hair grade 0 (pink skin) to 4 (full anagen), topical

Compound | Average Grades, 23 Days [1] | Average Grades, 25 Days (visual skin/hair grade 0 (pink skin) to 4 (full anagen), average of 7 mice after 25 days, topical) | Average Grades, 26 Days (visual skin/hair grade 0 (pink skin) to 4 (full anagen), average of 7 mice after 26 days, topical) | hair regrowth as compared to the control group (placebo) | effect on hair growth (average grade)
O=C(O)CCC/C=C\CC1C(/C=C/[C@H](O)C2Cc3ccccc3C2)[C@@H](F)C[C@@H]1O (stereo partly drawn) [Example 1] | 0.4 | 0.1 | 0.7 |  | 
COC(=O)CCC/C=C\CC1C(/C=C/[C@H](O)C2Cc3ccccc3C2)[C@@H](F)C[C@@H]1O (stereo partly drawn) [Example 2] | 0.1 |  |  | inhibited hair regrowth | 
O=C(N[C@H](c1ccccc1)c1ccccn1)[C@@H]1SCCN1S(=O)(=O)c1ccc(-c2ccccc2)cc1 [Example 3] |  |  |  | inhibited hair regrowth | significantly reduces hair growth
CC(C)OC(=O)CCC/C=C\CC1C(/C=C/[C@H](O)C2Cc3ccccc3C2)[C@@H](F)C[C@@H]1O (stereo partly drawn) [Example 4] |  |  |  |  | significantly reduces hair growth
Ile-Leu-Gly-His-(citrulline)-Asp-Tyr-Lys [Example 5] |  |  |  |  | significantly reduces hair growth
